Test results from patent publication US5129951A, “Aromatic aldehydes and alcohols as potato tuber sprout inhibitors” (priority 1991, dated 1992).

How the values were obtained:
[1] = Theoretical saturated headspace concentration calculated from known vapor pressures; format: physicochemical; conditions: calculated from known vapor pressures by Ideal Gas Law
Method: Because these compounds were difficult to quantitate by gas chromatography at the concentration levels in saturated headspaces, theoretical saturated concentrations were calculated by converting known vapor pressures of each compound at 25° C. to molar concentrations using the Ideal Gas Law, […], where n/V is the molar concentration, P is the partial pressure (atm), R is the Ideal Gas constant (0.0821 l atm/mol ° K.), and T is the temperature (° K.).

[2] = tested on: potato tubers; experiment: Sprout inhibition of tubers exposed to compounds in headspace gas for 7 days (Example 1); format: in vivo, Solanum tuberosum L. cv `Norchip`; conditions: 7 days in saturated headspace gas, 25° C.; for % Eyes Sprouted: dark, control 100, LSD (0.05) 12
[3] = tested on: fungi; experiment: Fungal growth on tubers exposed to compounds in headspace gas for 7 days (Example 1); format: in vivo; as to Fungal growth: key: -: no fungi visible; +: = some fungi; ++: heavy fungal growth
Source text: (control flasks lacked any compounds).

[4] = tested on: potato tubers; experiment: Tuber sprouting after removal from exposure to volatilized aromatics for 1, 2, 4, 7 or 10 days (Example 2); format: in vivo, Solanum tuberosum L. cv `Norchip`; conditions: 14 days after removal; for % Eyes Sprouted: 25° C., LSD (0.05) 24
Method: (§1) Each treatment consisted of placing the tubers in sealed 9.2 l flasks containing excess levels of the treatment compounds at 25° C. as in Example 1. Three tubers were then removed from each treatment after 1, 2, 4, 7, and 10 days, and placed in flasks containing fresh humidified air (free of any additional volatilized compounds) at 25° C. Control tubers were placed in sealed flasks lacking any added compounds and three were removed after 1 and 10 days. Fourteen days after removal from the sealed flasks containing treatment compounds, all tubers were examined for percentage of eyes sprouted, tuber texture, and fungal growth. Each treatment was replicated once and each experiment was repeated once.

[5] = tested on: fungi; experiment: Fungal growth on tubers after removal from exposure to volatilized aromatics (Example 2); format: in vivo
Method: as §1

[6] = tested on: potato tubers; experiment: Tuber sprouting 14 days after direct application of aromatic compounds (Example 3); format: in vivo, Solanum tuberosum L. cv `Norchip`; conditions: for % Eyes Sprouted: 25° C., control 98, LSD (0.05) 14
Method: (§2) Because the aromatic aldehydes and alcohols may be applied to the stored potatoes by methods other than as volatiles, direct application of the compounds either as pure chemicals or as emulsions was also studied. Emulsions were prepared as either 1% or 10% (v/v) of each compound in distilled water containing 0.05% (v/v) Tween 80 as an emulsifier (control tubers were treated with Tween 80 only). Tubers were treated by dipping each tuber in the test emulsion for 10 seconds, whereupon excess liquid was allowed to drain off. Pure compounds in liquid phase were applied with an atomizing sprayer, ensuring that the entire tuber surface was coated. Each tuber was sprayed with approximately 0.1-0.2 ml of each compound tested. Six tubers per treatment were used, with two replicates, and all experiments were repeated once.

[7] = tested on: fungi; experiment: Fungal growth 14 days after direct application of aromatic compounds (Example 3); format: in vivo; conditions: control +; also: key: -: no fungi visible; +: = some fungi; ++: heavy fungal growth
Method: as §2

[8] = tested on: potato tubers; experiment: Tuber sprouting after removal from exposure to volatilized aromatics for 1, 2, 4, 7 or 10 days (Example 2); format: in vivo, Solanum tuberosum L. cv `Norchip`; conditions: exposure for 10 days, 75 days after removal
[9] = cited from earlier work; for Temperature at Which Vapor Pressure Equals 1 mm Hg: vapor pressure 1 mm Hg
[10] = tested on: potato tubers; experiment: Tuber texture/quality after exposure to compounds in headspace gas for 7 days (Example 1); conditions: 7 days in saturated headspace gas, 25° C.
[11] = tested on: potato tubers; experiment: Tuber texture and quality 14 days after direct application of aromatic compounds (Example 3); conditions: for Tuber Texture: control SS
Method: as §2

[12] = tested on: potato tubers; experiment: Tuber texture after removal from exposure to volatilized aromatics (Example 2); format: in vivo, Solanum tuberosum L. cv `Norchip`; conditions: 14 days after removal from exposure
Method: as §1

[13] = tested on: potato; conditions: Aliaga and Feldheim (1985); cited from earlier work
[14] = 7 days in saturated headspace gas, 25° C.
[15] = 7 days in saturated headspace gas, 25° C., control ++
[16] = 1 day exposure, 14 days after removal, control +
[17] = 4 days exposure, 14 days after removal
[18] = 7 days exposure, 14 days after removal
[19] = 10 days exposure, 14 days after removal, control +
[20] = 14 days after removal from exposure
[21] = 2 days exposure, 14 days after removal

Row | Structure (SMILES) | Concentration of Saturated Headspace at 25° C. [1] | effect on tuber sprouting [2] | % Eyes Sprouted [2] | effect on fungal growth [3, 14] | Fungal Growth [3, 15] | % Eyes Sprouted ([4]; 1 day exposure, control 96) | % Eyes Sprouted ([4]; 2 days exposure) | % Eyes Sprouted ([4]; 4 days exposure) | % Eyes Sprouted ([4]; 7 days exposure) | % Eyes Sprouted ([6]; 1% emulsion (dip)) | % Eyes Sprouted ([6]; 10% emulsion (dip)) | % Eyes Sprouted ([6]; 100% (pure, sprayed)) | Fungal Growth ([7]; 1% emulsion (dip)) | Fungal Growth ([7]; 100% (pure, sprayed)) | Temperature at Which Vapor Pressure Equals 1 mm Hg [9] | Solubility in Water at 25° C. [9] | tuber condition [10] | Tuber Texture ([11]; 10% emulsion (dip)) | Tuber Texture ([11]; 100% (pure, sprayed)) | effectiveness of main oil components in inhibiting sprouting, weight loss and rot [13] | further results
1 | O=CC=Cc1ccccc1 [Cinnamaldehyde] | 1900 nM | completely inhibited sprouting | 0% | prevented any visible fungal growth | - | 62% | 80% | 64% | 24% | 0% | 0% | 0% | - | - | 76.1 °C | sl. soluble | firm and appeared healthy | S,N | S,N |  | % Eyes Sprouted ([4]; 10 days exposure, control 100): 0%; inhibition of tuber sprouting ([4]; exposure for 7 or fewer days): did not completely inhibit sprouting; inhibition of tuber sprouting ([4]; exposure for 10 days): completely inhibited sprouting; Fungal Growth [5, 16]: -; Fungal Growth [5, 17]: -; Fungal Growth [5, 18]: -; Fungal Growth [5, 19]: -; Fungal Growth [5, 20]: a small amount of mycelia was detected in a bruised area; inhibition of sprouting ([6]; 1% emulsion): completely inhibited sprouting without damaging the potato tubers; sprouting [8]: remained unsprouted; tuber condition ([11]; 1% emulsion): remained hard, with no necrosis or surface pitting
2 | CC(C)c1ccc(C=O)cc1 [Cuminaldehyde] | 6400 nM | completely inhibited sprouting | 0% | prevented any visible fungal growth | - | 63% | 68% | 49% | 8% | 5% | 43% | 0% | - | - | 58.0 °C | insoluble | firm and appeared healthy | SS,N | SS,N |  | % Eyes Sprouted ([4]; 10 days exposure, control 100): 0%; inhibition of tuber sprouting ([4]; exposure for 7 or fewer days): did not completely inhibit sprouting; inhibition of tuber sprouting ([4]; exposure for 10 days): completely inhibited sprouting; Fungal Growth [5, 16]: -; Fungal Growth [5, 21]: -; Fungal Growth [5, 17]: -; Fungal Growth [5, 18]: -; Fungal Growth [5, 19]: -; sprouting [8]: remained unsprouted
3 | CCOC(=O)C=Cc1ccccc1 [Ethyl cinnamate] | 700 nM | suppressed sprouting to some degree | 64% |  | + |  |  |  |  |  |  |  |  |  | 87.6 °C | insoluble |  |  |  |  | 
4 | C=CCc1ccc(O)c(OC)c1 [Eugenol, reference compound] | 1600 nM | no significant effect on tuber sprouting | 94% | especially heavy growth | ++ |  |  |  |  | 32% | 7% | 0% | ++ | - | 78.4 °C |  | remained firm | SS,N | S,N |  | 
5 | O=CCCc1ccccc1 [Hydrocinnamaldehyde, 3-phenyl-propanal] |  | completely inhibited sprouting | 0% | prevented any visible fungal growth | - | 90% | 79% | 66% | 51% | 25% | 0% | 0% | - | - |  | sl. soluble | firm and appeared healthy | S | S,N |  | % Eyes Sprouted ([4]; 10 days exposure, control 100): 24%; Fungal Growth [5, 16]: -; Fungal Growth [5, 21]: -; Fungal Growth [5, 17]: -; Fungal Growth [5, 18]: -; Fungal Growth [5, 19]: -; Fungal Growth ([7]; 10% emulsion (dip)): ++
6 | COC(=O)C=Cc1ccccc1 [Methyl cinnamate] | 1600 nM | suppressed sprouting to some degree | 16% | suppressed fungal growth | - |  |  |  |  |  |  |  |  |  | 77.4 °C | insoluble |  |  |  |  | 
7 | Oc1ccccc1 [Phenol] | 21000 nM | completely inhibited sprouting | 0% |  |  |  |  |  |  |  |  |  |  |  | 40.1 °C |  | blackened, soft to the touch, and displayed evident tissue necrosis |  |  |  | Fungal Growth ([3]; in vivo): -; effect on fungal growth ([3]; in vivo): prevented any visible fungal growth; Tuber Texture ([10]; control SS): S,N
8 | O=Cc1ccccc1O [Salicylaldehyde] | 36000 nM | completely inhibited sprouting | 0% | prevented any visible fungal growth | - | 0% | 0% | 0% | 0% | 0% | 0% | 0% | ++ | - |  |  | firm and appeared healthy | S,N | S,N |  | % Eyes Sprouted ([4]; 10 days exposure, control 100): 0%; inhibition of tuber sprouting ([4]; after 1 or more days of treatment): completely inhibited tuber sprouting; Fungal Growth [5, 16]: -; Fungal Growth [5, 21]: -; Fungal Growth [5, 17]: -; Fungal Growth [5, 18]: -; Fungal Growth [5, 19]: -; Fungal Growth [5, 20]: lacked visible fungal growth; tuber firmness [12]: firm; Fungal Growth ([7]; 10% emulsion (dip)): -; sprouting [8]: remained unsprouted; Tuber Texture ([11]; 1% emulsion (dip)): S,N
9 | C=C(C)C1CC=C(C)CC1 (stereo not shown) [limonene] |  |  |  |  |  |  |  |  |  |  |  |  |  |  |  |  |  |  |  | effective | 
10 | CC1CCC(C(C)C)C(=O)C1 (stereo not shown) [menthone/isomenthone] |  |  |  |  |  |  |  |  |  |  |  |  |  |  |  |  |  |  |  | effective | 
11 | CC(C)=C1CC[C@@H](C)CC1=O [pulegone] |  |  |  |  |  |  |  |  |  |  |  |  |  |  |  |  |  |  |  | effective | 
12 | CC1=CCC2CC1C2(C)C (stereo not drawn) [α-pinene] |  |  |  |  |  |  |  |  |  |  |  |  |  |  |  |  |  |  |  | effective | 
13 | C=C1CCC2CC1C2(C)C (stereo not drawn) [β-pinene] |  |  |  |  |  |  |  |  |  |  |  |  |  |  |  |  |  |  |  | effective | 
